Measured values taken from US8232401B2 (Japan Tobacco Inc., priority 2002, dated 2012).

Biological target: T1, HIV integrase (Human immunodeficiency virus type 1 group M subtype B, UniProt P12497, F1332H)
T1 construct: HIV integrase full length gene; made in house; host or cells: Escherichia coli BL21(DE3)
Experiment: Determination of enzyme (HIV integrase) inhibitory activity (strand transfer, microtiter plate, absorbance at 450 nm)
Type: biochemical, HIV (Human Immunodeficiency Virus (type 1))
Conditions: recombinant HIV integrase (F185H) expressed in E. coli; donor DNA on streptavidin plate, digoxigenin target DNA; 37° C.
Method: The following explains evaluation methods of the HIV integrase inhibitory activity of the compound of the present invention.
(i) Construction of Recombinant Integrase Gene Expression System
(ii) Production and Purification of Integrase Protein
Escherichia coli recombinant BL21(DE3) transformed with plasmid pET21a-IN-F185H obtained in (i) was shake cultured at 30° C. in a liquid medium containing ampicillin. When the culture reached the logarithmic growth phase, isopropyl-β-D-thiogalactopyranoside was added to promote expression of integrase gene. The culture was continued for 3 hrs to promote accumulation of the integrase protein. The recombinant E. coli was collected in pellets by centrifugal separation and preserved at −80° C.
The E. coli was suspended in Lysis buffer (20 mM HEPES (pH 7.5), 5 mM DTT, 10 mM CHAPS, 10% glycerol) containing 1M sodium chloride and subjected to repeat pressurization and depressurization for rupture, and centrifugal separation at 4° C., 40,000×g, 60 min to recover a water-soluble fraction (supernatant). This was diluted 10-fold with Lysis buffer free of sodium chloride, mixed with SP-Sepharose (Pharmacia Corporation) and stirred at 4° C. for 60 min to allow adsorption of integrase protein to the resin. The resin was washed with Lysis buffer containing 100 mM sodium chloride and the integrase protein was eluted with Lysis buffer containing 1M sodium chloride.
The eluted integrase protein solution was applied to a Superdex 75 (Pharmacia Corporation) column for gel filtration. The protein was eluted with Lysis buffer containing 1M sodium chloride.
The obtained fractions of the integrate protein were collected and preserved at −80° C.
(iii) Preparation of DNA Solution
The following DNA synthesized by Greiner was dissolved in TE buffer (10 mM Tris-hydrochloric acid (pH 8.0), 1 mM EDTA) and mixed with donor DNA, target DNA, each complementary strand (+ and − strands) to 1 μM. The mixture was heated at 95° C. for 5 min, 80° C. for 10 min, 70° C. for 10 min, 60° C. for 10 min, 50° C. for 10 min and 40° C. for 10 min and preserved at 25° C. to give a double stranded DNA, which was used for the test. Donor DNA (− strand having biotin attached to the 5′ terminal)
(iv) Determination of Enzyme (HIV Integrase) Inhibitory activity
The donor DNA was diluted with TE buffer to 10 nM, of which 50 μl was added to each well of streptavidin-coated microtiter plate (Roche) and allowed to adsorb at 37° C. for 60 min. The DNA was washed with phosphate buffer (Dulbecco PBS, Sanko Junyaku Co., Ltd.) containing 0.1% Tween 20 and phosphate buffer. Then, a reaction mixture (70 μl) having the following composition, a test substance (10 μl) diluted with the reaction mixture and […] integrase protein (10 μl) were added to each well and reacted at 37° C. for 60 min.
Then, 50 nM target DNA (1.0 μl) was added, reacted at 37° C. for 10 min and washed with phosphate buffer containing 0.1% Tween 20 to stop the reaction.
Then, 100 mU/ml peroxidase labeled anti-digoxigenin antibody solution (Roche, 100 μl) was added, and the mixture was reacted at 37° C. for 60 min, followed by washing with phosphate buffer containing 0.1% Tween 20.
A peroxidase color solution (Bio Rad, 100 μl) was added and allowed to react at room temperature for 4 min. The color reaction was stopped by adding 1N sulfuric acid (100 μl). The absorbance at 450 nm was measured.
The HIV integrase inhibitory activity (IC50) of the compound of the present invention was calculated from the inhibition rate according to the following formula. […] Evaluation of Antiviral Activity

Row | SMILES | IC50
1 | COc1cc(Cc2cccc(Cl)c2Cl)cc2c(=O)c(C(=O)O)cn(CCO)c12 [Example 3-14, 6-(2,3-Dichlorobenzyl)-1-(2-hydroxyethyl)-8-methoxy-4-oxo-1,4-dihydroquinoline-3-carboxylic acid] | 14 nM
2 | CC(C)Oc1cc2c(cc1Cc1cccc(Cl)c1F)c(=O)c(C(=O)O)cn2[C@H](CO)C1CCCCC1 [Example 4-40, (S)-6-(3-Chloro-2-fluorobenzyl)-1-(1-cyclohexyl-2-hydroxyethyl)-7-isopropyloxy-4-oxo-1,4-dihydroquinoline-3-carboxylic acid] | 4.3 nM
3 | CC(C)C[C@@H](CO)n1cc(C(=O)O)c(=O)c2cc(Cc3cccc(Cl)c3F)c(OC(C)C)cc21 [Example 4-23, (S)-6-(3-Chloro-2-fluorobenzyl)-1-(1-hydroxymethyl-3-methylbutyl)-7-isopropyloxy-4-oxo-1,4-dihydroquinoline-3-carboxylic acid] | 3.8 nM
4 | CC(O)Cn1cc(C(=O)O)c(=O)c2cc(Cc3cccc(Cl)c3Cl)ccc21 (stereo not drawn) [Example 1-30, 6-(2,3-Dichlorobenzyl)-1-(2-hydroxypropyl)-4-oxo-1,4-dihydroquinoline-3-carboxylic acid] | 140 nM
5 | O=C(O)c1cn(CCO)c2cc(O)c(Cc3cccc(Cl)c3Cl)cc2c1=O [Example 3-6, 6-(2,3-Dichlorobenzyl)-7-hydroxy-1-(2-hydroxyethyl)-4-oxo-1,4-dihydroquinoline-3-carboxylic acid] | 11 nM
6 | COc1c(Cc2cccc(Cl)c2Cl)ccc2c1c(=O)c(C(=O)O)cn2CCO [Example 3-1, 6-(2,3-Dichlorobenzyl)-1-(2-hydroxyethyl)-5-methoxy-4-oxo-1,4-dihydroquinoline-3-carboxylic acid] | 470 nM
7 | O=C(O)c1cn(Cc2cc3ccccc3s2)c2ccc(Cc3cccc(Cl)c3Cl)cc2c1=O [Example 1-22, 1-Benzo[b]thiophen-2-ylmethyl-6-(2,3-dichlorobenzyl)-4-oxo-1,4-dihydroquinoline-3-carboxylic acid] | 110 nM
8 | O=C(O)c1cn(C(CO)CO)c2ccc(Cc3cccc(Cl)c3Cl)cc2c1=O [Example 3-10, 6-(2,3-Dichlorobenzyl)-1-[2-hydroxy-1-(hydroxymethyl)ethyl]-4-oxo-1,4-dihydroquinoline-3-carboxylic acid] | 18 nM
9 | NCCn1cc(C(=O)O)c(=O)c2cc(Cc3cccc(Cl)c3Cl)ccc21 [Example 1-46, 1-(2-Aminoethyl)-6-(2,3-dichlorobenzyl)-4-oxo-1,4-dihydroquinoline-3-carboxylic acid] | 420 nM
10 | CC(=O)Nn1cc(C(=O)O)c(=O)c2cc(Cc3cccc(Cl)c3Cl)ccc21 [Example 2-3, 1-Acetylamino-6-(2,3-dichlorobenzyl)-4-oxo-1,4-dihydroquinoline-3-carboxylic acid] | 110 nM
11 | O=C(O)c1cn(CCO)c2ccc(Cc3cc(O)ccc3Cl)cc2c1=O [Example 4-11, 6-(2-Chloro-5-hydroxybenzyl)-1-(2-hydroxyethyl)-4-oxo-1,4-dihydroquinoline-3-carboxylic acid] | 220 nM
12 | O=C(O)c1cn(CC(F)(F)F)c2ccc(Cc3cccc(Cl)c3Cl)cc2c1=O [Example 1-27, 6-(2,3-Dichlorobenzyl)-1-(2,2,2-trifluoroethyl)-4-oxo-1,4-dihydroquinoline-3-carboxylic acid] | 76 nM
13 | O=C(O)c1cn(CCO)c2ccc(Cc3cc(Br)ccc3Cl)cc2c1=O [Example 4-7, 6-(5-Bromo-2-chlorobenzyl)-1-(2-hydroxyethyl)-4-oxo-1,4-dihydroquinoline-3-carboxylic acid] | 130 nM
14 | CSCn1cc(C(=O)O)c(=O)c2cc(Cc3cccc(Cl)c3Cl)ccc21 [Example 1-68, 6-(2,3-Dichlorobenzyl)-1-methylsulfanylmethyl-4-oxo-1,4-dihydroquinoline-3-carboxylic acid] | 49 nM
15 | O=C(O)c1cn(CCO)c2ccc(Cc3c(F)cccc3Cl)cc2c1=O [Example 1-33, 6-(2-Chloro-6-fluorobenzyl)-1-(2-hydroxyethyl)-4-oxo-1,4-dihydroquinoline-3-carboxylic acid] | 140 nM
